Experimental data published in article PMC9601670, “Solubility Enhancement, Formulation Development, and Antibacterial Activity of Xanthan-Gum-Stabilized Colloidal Gold Nanogel of Hesperidin against Proteus vulgaris” (Gels, 2022).
In brackets after ≈: the same amount, converted by molar mass.

Key:
[1] = Solubility study of HSP (shake flask); assay type: physicochemical; conditions: for Hesperidin Solubility: shaken 24 h, room temperature
Procedure: The solubility of HSP was determined by adopting the standard shake flask technique according to the method described by Majumdar and colleagues. The screening of the solution was performed by evaluating the solubility of HSP (10% (w/v) with respect to pH solution. To perform this experiment, 10% w/v of HSP was added to a glass vial containing 5 mL of the chosen solvent and tightly sealed. To ensure homogeneous mixing, the samples were shaken continuously for 24 h in a water bath at room temperature and 50 rpm. After 24 h, samples were centrifuged at 4500 rpm and HSP was assayed in the supernatant. Solubility was determined in water and in buffers with pH values ranging from 1.2 to 6.8. In addition, the effect of XA-stabilized AuNPs on the solubility of hesperidin was examined to determine by how much the solubility was increased.

[2] = system: Proteus vulgaris (MTCC 7299); assay: Minimum inhibitory concentration (microtiter plate dilution); assay type: cell-based; conditions: P. vulgaris MTCC 7299, 37 °C, 24 h, absorbance 640 nm; method: concentration that inhibited 50% of bacterial growth
Procedure: Briefly, stock solutions of XA@AuNPs gel and HSP@XA@AuNPs gel were prepared in water to ensure complete solubilization at a concentration of 1 mg/mL. A total of 100 µL of nutrient broth and Sabouraud dextrose broth was added to wells 1 to 10. XA@AuNPs gel and HSP@XA@AuNPs gel samples (100 µL) were added to the first well. The solution was serially diluted from well 1 to well 10, while 100 µL from well 10 was discarded. Then 100 µL of the bacterial suspension was added to all dilution wells from well 1 to well 10. The overnight bacterial suspension (100 µL) was added to well 11, and 100 µL of sterile broth was added to serve as a positive control or growth control, while 200 µL of sterile nutrient broth and Sabouraud dextrose broth in well 12 served as a negative control or sterility control. The plate was incubated at 37 °C for 24 h. After incubation, absorbance in each well was measured using an ELISA reader (Erba) at a wavelength of 640 nm. The procedure described above was performed for each microbial strain. The concentration of the sample and standard that inhibited 50% of bacterial growth was determined for all microorganisms. All tests were performed in triplicate to minimize error.

With `COc1ccc([C@@H]2CC(=O)c3c(O)cc(O[C@@H]4O[C@H](CO[C@@H]5O[C@@H](C)[C@H](O)[C@@H](O)[C@H]5O)[C@@H](O)[C@H](O)[C@H]4O)cc3O2)cc1O` [HSP, hesperidin] as the compound, how does the “Hesperidin Solubility” value ([1]; Water) read?
The value was 4.09 ± 0.20 µg/mL.

What about the “Hesperidin Solubility” value ([1]; XA-stabilized AuNPs as solvent) of the same compound?
Its value is 62.23 ± 3.1 µg/mL.

And the “Solubility increase by addition of XA-stabilized AuNPs compared to water” value ([1]; XA-stabilized AuNPs vs water)?
The value was 15 fold.

And the “Hesperidin Solubility” value ([1]; pH 1.2 buffer)?
Its value is 2.44 ± 0.12 µg/mL.

What about the “Hesperidin Solubility” value ([1]; pH 5.0 buffer) of the same compound?
Its value is 3.42 ± 0.17 µg/mL.

And the “Hesperidin Solubility” value ([1]; pH 6.8 buffer)?
Its value is 6.19 ± 0.30 µg/mL.

And the MIC [2]?
Its MIC is 9.2 µg/mL (≈ 15.1 µM).
